The results in this text go back to patent US20030018025A1, “Certain 4-aminomethyl-2-substituted imidazole derivatives and 2-aminomethyl-4-substituted imidazole derivatives: new classes of dopamine receptor subtype specific ligands” (Neurogen Corporation, Corporation of the State of Delaware, priority 1995, published 2003).

Structures are written as SMILES. Counter-ions that a name gives are not always drawn.

Consider `Cc1ccc(-c2ncc(CN3CCN(c4ncccn4)CC3)[nH]2)cc1` [Compound 133], for which the melting point (in general, the temperature of the solid-liquid transition) lay within 178 to 180 °C.
Regarding `O=C(CCc1cnc(-c2ccccc2)[nH]1)N1CCN(c2ncccn2)CC1` [Compound 122, 2-phenyl-4(5)-[(4-(2-pyrimidinyl)-piperazin-1-yl)-propan-1-oyl]-imidazole], the melting point was in the range of 143 to 148 °C.
With `COc1cc(Br)cc(-c2ncc(CN(C)C)[nH]2)c1OC` (as salt: hydrochloride) [Compound 16, 2-(5-Bromo-2,3-dimethoxyphenyl)-4(5)-[(N,N-dimethyl)aminomethyl]-imidazole dihydrochloride] the figure was 194 °C; with `Fc1ccc(N2CCN(Cc3cnc(-c4ccccc4)[nH]3)CC2)cc1` (as salt: hydrochloride) [Compound 56, 2-Phenyl-4(5)-[(4-(4-fluorophenyl)-piperazin-1-yl-)methyl]imidazole dihydrochloride], 64 to 68 °C.
With `c1ccc(CC2CCN(CC3CCCc4[nH]c(-c5ccccc5)nc43)CC2)cc1` (stereo not drawn) [Compound 138, 2-phenyl-7-[(4-benzyl-piperidin-1-yl)-methyl]-4,5,6,7-tetrahydrobenzimidazole] the figure was 189 to 191 °C; with `Clc1ccc(N2CCN(Cc3cnc(-c4ccccc4)[nH]3)CC2)cc1Cl` [Compound 61, 2-Phenyl-4(5)-[(4(3,4-dichlorophenyl)-piperazin-1-yl-)methyl]imidazole], 179 to 181 °C; with `O=C(c1ccccc1)c1ncc(CN2CCN(c3ncccn3)CC2)[nH]1` [Compound 116, 2-(benzoyl)-4(5)-[(4-(2-pyrimidinyl)-piperazin-1-yl)-methyl]-imidazole], 177 to 179 °C.
For `COc1ccc(Br)cc1-c1ncc(CN(C)C)[nH]1` (as salt: hydrochloride) [Compound 1, 2-(5-bromo-2-methoxyphenyl)-4(5)-[(N,N-dimethyl)aminomethyl]-imidazole dihydrochloride] the value was 242 to 243 °C; for `COc1ccc(Cl)cc1-c1ncc(CN2CCN(c3ccccc3OC)CC2)[nH]1` (as salt: hydrochloride) [Compound 43, 2-(5-Chloro-2-methoxyphenyl)-4(5)-[(4-(2-methoxyphenyl)-piperazin-1-yl)-methyl]-imidazole dihydrochloride], 138 to 143 °C.
`COc1ccccc1N1CCN(Cc2cnc(-c3cccc(OC)c3OC)[nH]2)CC1` (as salt: hydrochloride) [Compound 21, 2-(2,3-Dimethoxyphenyl)-4(5)-[(4-(2-methoxyphenyl)-piperazin-1-yl)-methyl]-imidazole dihydrochloride] displayed a melting point of 217 to 218 °C.
For `c1ccc(CC2CCN(Cc3ncc(-c4ccccc4)[nH]3)CC2)cc1` (as salt: fumarate) [Compound 77, 4-phenyl-2(5)-[(4-benzylpiperidin-1-yl)-methyl]imidazole] the value was 155 to 157 °C; for `CCc1ccc(OC)c(-c2ncc(CN3CCN(c4ccccc4OC)CC3)[nH]2)c1` (as salt: hydrochloride) [Compound 55, 2-(5-Ethyl-2-methoxyphenyl-4(5)-[(4-(2-methoxyphenyl)-piperazin-1-yl)-methyl]-imidazoledihydrochloride], 61 to 64 °C.
In turn, `COc1ccccc1N1CCN(Cc2cnc(-c3ccc(F)cc3)[nH]2)CC1` [Compound 20, 2-(4-Fluorophenyl)-4(5)-[(4-(2-methoxyphenyl)-piperazin-1-yl)-methyl]-imidazole] displayed a melting point of 95 to 97 °C.
Consider `COc1cccc(-c2ncc(CN3CCC(c4ccccc4)CC3)[nH]2)c1` (as salt: hydrochloride) [Compound 50, 2-(3-Methoxyphenyl)-4(5)[(4-phenyl-piperidin-1-yl)-methyl]-imidazole dihydrochloride], for which the melting point was 114 to 117 °C.
The compound `Fc1ccccc1-c1ncc(CN2CCC(c3ccccc3)CC2)[nH]1` (as salt: maleate) [Compound 52, 2-(2-Fluorophenyl)-4(5)[(4-phenyl-piperidin-1-yl)-methyl]-imidazole dimaleate] displayed a melting point of 142 to 144 °C.
For the compound `c1cnc(N2CCN(Cc3cnc(C4CCCCC4)[nH]3)CC2)nc1` [Compound 128, 2-cyclohexyl-4(5)-[(4-(2-pyrimidinyl)-piperizin-1-yl)-methyl]-imidazole], the melting point was in the range of 210 to 213 °C.
For `Cc1ccc(Cl)cc1N1CCN(Cc2cnc(-c3ccccc3)[nH]2)CC1` (as salt: hydrochloride) [Compound 60, 2-Phenyl-4(5)-[(4(5-chloro-2-methylphenyl)-piperazin-1yl-)-methyl]imidazole dihydrochloride], the melting point fell in the range of 142 to 145 °C.
With `Fc1ccnc(N2CCN(Cc3cnc(-c4ccccc4)[nH]3)CC2)n1` (as salt: hydrochloride) [Compound 58, 2-Phenyl-4(5)-[(4-(4-fluoro-2-pyrimidinyl)-piperazin-1yl)-methyl]imidazole dihydrochloride] the figure was 188 to 190 °C; with `COc1ccccc1N1CCN(Cc2cnc(-c3ccccc3)[nH]2)CC1` [Compound 19, 2-phenyl-4-(5)-[(4-(2-methoxyphenyl)-piperazin-1-yl)-methyl]imidazole], 105 to 107 °C; with `C[C@@H]1CN(c2ncccn2)C[C@H](C)N1Cc1cnc(-c2ccccc2)[nH]1` [Compound 140, 2-phenyl-4(5)-[(4-(2-pyrimidinyl)-cis-2,6-dimethylpiperazin-1-yl)-methyl]-imidazole], 130 to 135 °C.
With `O=C(/C=C/c1cnc(-c2ccccc2)[nH]1)N1CCN(c2ncccn2)CC1` [Compound 119, 2-phenyl-4(5)-[(4-(2-pyrimidinyl)-piperazin-1-yl)-propen-1-oyl]-imidazole] the figure was 235 to 236 °C; with `c1ccc(-c2ncc(CN3CCC(c4ccccc4)CC3)[nH]2)cc1` (as salt: hydrochloride) [Compound 26, 2-Phenyl-4(5)-[(4-phenyl-piperidin-1-yl)-methyl]-imidazole dihydrochloride], 238 to 240 °C; with `Ic1nc(-c2ccccc2)[nH]c1CN1CCN(c2ncccn2)CC1` (as salt: hydroiodid) [Compound 90, 2-phenyl-5-iodo-4(5)-[(4-(2-pyrimidinyl)piperazin-1-yl)methyl]-imidazole hydroiodide salt], 196 to 199 °C.
`c1ccc(-c2nc(-c3ccccc3)c(CN3CCN(c4ncccn4)CC3)[nH]2)cc1` [Compound 132, 2,5-diphenyl-4(5)-[(4-(2-pyrimidinyl)piperazin-1-yl)methyl]-imidazole] came in with a melting point of 221 to 225 °C.
With `CC(c1cnc(-c2ccccc2)[nH]1)N1CCC(Cc2ccccc2)CC1` (stereo not drawn) (as salt: hydrochloride) [Compound 91, 2-phenyl-4(5)-[1-((4-benzyl-piperidin-1-yl)-ethan-1-yl)]imidazole dihydrochloride salt] the figure was 169 to 171 °C.
Regarding `O=C(c1cnc(-c2ccccc2)[nH]1)N1CCN(c2ncccn2)CC1` [Compound 144, 2-phenyl-4(5)-N-[(4-(2-pyrimidinyl)piperazin-1-yl)-carboxamido]-imidazole], the melting point lay in the range of 231 to 232 °C.
For the compound `COc1ccc(-c2nc(CN3CCC(c4ccccc4)CC3)c[nH]2)cc1` (as salt: hydrochloride) [Compound 47, 2-(4-Methoxyphenyl) -4(5)[(4-phenyl-piperidin-1-yl)-methyl]-imidazole dihydrochloride], the melting point is 196 to 199 °C.
With `c1ccc(-c2ncc(CCN3CCN(c4ncccn4)CC3)[nH]2)cc1` [Compound 143, 2-phenyl-4(5)-[(4-(2-pyrimidinyl)-piperazin-1-yl)-ethan-1-yl]-imidazole] the figure was 142 to 144 °C; with `c1ccc(-c2ncc(CCCN3CCN(c4ncccn4)CC3)[nH]2)cc1` [Compound 125, 2-phenyl-4(5)-[(4-(2-pyrimidinyl)-piperazin-1-yl)-propan-1-yl]-imidazole], 133 to 135 °C; with `c1ccc(CC2CCN(Cc3cnc(-c4cccc5ccccc45)[nH]3)CC2)cc1` [Compound 92, 2-(1-naphthyl)-4(5)-[(4-benzyl-piperidin-1-yl)-methyl]imidazole], 81 to 83 °C.
